We go through 11 compounds from patent US20250333419A1, “BICYCLIC COMPOUNDS AS INHIBITORS OF WRN” (Incyte Corporation, priority 2023, published 2025).

Test [1] concerns the target T1, WRN (Homo sapiens, UniProt Q14191).
T1 construct: A His-tagged construct of WRN (AA S2-S1235) was produced and used for the ATPase assay; His; made in house; host or cells: Sf9 insect cells (baculovirus)
Nature of the test: WRN ATPase activity assay (ADP-Glo). Type of test: biochemical. To be noted: IC50, 1-hr pre-incubation with enzyme; geometric means of at least 2 independent replicates. The protocol: Compounds of the Examples were tested for WRN ATPase activity. WRN ATPase activity catalyzes ATP hydrolysis to produce ADP and phosphate. DNA encoding the target protein, 6×HIS-TEV-WRN-517-945, was produced, cloned and transfected as detailed in Example D. The amount of ADP produced was measured using ADP-Glo™ Kinase Assay kit from Promega Corporation in a Greiner white regular volume 384 wells assay plate (Greiner #781075). Data was normalized to a standard curve generated using various ADP concentrations and the corresponding luminescent signal intensities at each concentration. The assay conditions were optimized for enzyme concentration (WRN), substrate concentrations (ATP & dsDNA), and the linearity of the ATPase reaction, in the following assay buffer: 50 mM Tris-HCl, pH-7.5, 2 mM MgCl2, 50 mM NaCl, 1 mM EGTA, 0.01% P-20, 0.05% BSA, and 2 mM DTT prepared with nuclease free water.
A serial dilution (1:3 scheme) of the compounds were prepared in neat DMSO, with 100 nL of the compounds dispensed in the 384 wells assay plate. An 1-hr pre-incubation of the compounds with enzyme was included. A His-tagged construct of WRN (AA S2-S1235) was produced and used for the ATPase assay. Maximum inhibition control wells were set up with the addition of only assay buffer, and no inhibition control wells were set up with neat DMSO without test compounds. The reaction was initiated by addition of 5 μL substrate mix (200 μM ultrapure ATP, and 50 nM dsDNA prepared in assay buffer) and incubated at 25° C. for 35 min. A forked dsDNA oligomer substrate was prepared by annealing equal amounts of oligo GPat-1 ([BHQ2][…]) and oligo GPat-2 ([…][TAM]) and was used as dsDNA substrate for WRN ATPase assay. A typical ATPase reaction consists of 25 nM forked dsDNA, 100 μM ATP, and 1 nM WRN prepared in assay buffer. The WRN ATPase reaction was stopped by the addition of 5 μL of ADP-Glo Reagent from ADP-Glo™ Kinase Assay kit and incubated for 40 min to deplete the unreacted ATP. Afterwards, 5 μL of Kinase Detection Reagent from the ADP-Glo™ Kinase Assay kit was added and incubated for 1 hr for the development of luminescence signal.
Luminesce signals were measured on BMG PHERAstar FSX using luminescence protocol. Data analysis was carried out using Genedata software following % of control normalization. Fitting parameters include dose response IC50, Hill slope (n), maximum inhibition (S∞), and minimum inhibition (S0). The reported IC50 values for compounds in this invention are the geometric means of at least 2 independent replicates.

The target in test [2] is T1, WRN. Nature of the test: WRN Helicase activity assay (fluorescence DNA unwinding). Type of test: biochemical. To be noted: IC50, 1-hr pre-incubation with enzyme; geometric means of at least 2 independent replicates. The method, then:
Compounds of the examples were tested for WRN helicase activity. DNA encoding the target protein, 6×HIS-TEV-WRN-517-945, was produced, cloned and transfected as detailed in Example D. To determine the inhibitory properties of the compounds, a 384 wells plate-based Helicase assay was set up to measure the extent of DNA unwinding (Helicase) activity of WRN. The WRN Helicase assay was designed to measure increase in fluorescence signal using a fluorescence based, donor-quencher paired forked dsDNA oligomer substrate (custom synthesis from Sigma-Aldrich) prepared by annealing equal amounts of oligo GPat-1 ([BHQ2][…]) and oligo GPat-2 ([…][TAM]). Continuous measurement of fluorescent signal was used to optimize the buffer conditions, concentration of enzyme (WRN), concentration of substrates (ATP & dsDNA), and the linearity of the Helicase reaction. All solutions were prepared in the following assay buffer: 50 mM Tris-HCl, pH-7.5, 2 mM MgCl2, 50 mM NaCl, 1 mM EGTA, 0.01% P-20, 0.05% BSA, and 2 mM DTT prepared with nuclease free water.
A serial dilution (1:3 scheme) of the compounds was prepared in neat DMSO and 100 nL of the compounds was dispensed in the Greiner black low volume (Greiner #784076) 384 wells assay plate. An 1-hr pre-incubation of the compounds with enzyme was included. A His-tagged construct of WRN (AA S2-S1235) was produced and used for the ATPase assay. Maximum inhibition control wells were set up with the addition of only assay buffer, and no inhibition control wells were set up with neat DMSO without test compounds. The reaction was initiated by addition of 5 μL substrate mix (200 μM ultrapure ATP, and 50 nM dsDNA prepared in assay buffer) and incubated at 25° C. for 35 min. A typical Helicase reaction consists of 25 nM forked dsDNA, 100 μM ATP, and 1 nM WRN prepared in assay buffer. The WRN Helicase reaction was quenched by the addition of 5 μL ‘STOP’ solution containing 100 mM EDTA (final EDTA concentration 33.33 mM) prepared in assay buffer. The plates were read on BMG PHERAstar FSX using 540/590 module to measure an increase of fluorescence. Data analysis was carried out using the Genedata software following % of control normalization. Fitting parameters include dose response IC50, Hill slope (n), maximum inhibition (S∞), and minimum inhibition (S0). The reported IC50 values for compounds in this invention are the geometric means of at least 2 independent replicates.

T1 sequence (Q14191 2-1235): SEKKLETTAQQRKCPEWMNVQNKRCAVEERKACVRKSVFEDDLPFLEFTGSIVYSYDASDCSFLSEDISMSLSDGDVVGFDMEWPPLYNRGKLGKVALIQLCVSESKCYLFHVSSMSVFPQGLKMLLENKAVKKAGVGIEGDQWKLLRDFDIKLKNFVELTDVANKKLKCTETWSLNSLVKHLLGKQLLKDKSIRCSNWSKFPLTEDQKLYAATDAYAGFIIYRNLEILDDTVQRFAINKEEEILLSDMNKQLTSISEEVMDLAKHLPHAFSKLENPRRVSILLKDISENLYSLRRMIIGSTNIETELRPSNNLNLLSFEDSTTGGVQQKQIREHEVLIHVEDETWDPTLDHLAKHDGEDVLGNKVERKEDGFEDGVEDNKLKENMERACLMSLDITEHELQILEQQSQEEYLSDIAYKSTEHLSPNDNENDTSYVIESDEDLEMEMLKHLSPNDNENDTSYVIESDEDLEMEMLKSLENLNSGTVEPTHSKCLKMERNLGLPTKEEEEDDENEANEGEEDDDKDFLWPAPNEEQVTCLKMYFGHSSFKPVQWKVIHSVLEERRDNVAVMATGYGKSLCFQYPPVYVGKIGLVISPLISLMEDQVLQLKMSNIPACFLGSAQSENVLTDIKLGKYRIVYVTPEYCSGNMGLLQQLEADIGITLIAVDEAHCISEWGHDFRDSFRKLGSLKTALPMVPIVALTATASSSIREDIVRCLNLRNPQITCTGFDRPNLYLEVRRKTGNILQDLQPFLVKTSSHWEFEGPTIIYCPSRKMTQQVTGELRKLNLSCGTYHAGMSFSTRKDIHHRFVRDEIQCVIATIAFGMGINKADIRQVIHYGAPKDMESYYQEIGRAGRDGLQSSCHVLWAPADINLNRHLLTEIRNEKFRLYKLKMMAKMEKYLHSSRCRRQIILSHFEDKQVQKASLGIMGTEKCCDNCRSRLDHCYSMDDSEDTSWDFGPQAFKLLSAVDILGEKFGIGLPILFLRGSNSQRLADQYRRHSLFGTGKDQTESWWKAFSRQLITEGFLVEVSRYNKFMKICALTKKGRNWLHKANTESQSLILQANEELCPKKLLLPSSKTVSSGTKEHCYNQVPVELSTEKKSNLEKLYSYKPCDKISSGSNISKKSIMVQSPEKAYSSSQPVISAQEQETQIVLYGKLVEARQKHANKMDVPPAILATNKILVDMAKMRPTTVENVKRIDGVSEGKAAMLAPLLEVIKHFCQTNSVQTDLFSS

For orientation: IC50 means the concentration that inhibits the measured activity by half. Low readings indicate greater potency, high ones weaker potency. On to `C=CC(=O)N1CCc2cccc(-c3c(CC)n(CC(=O)Nc4ccc(C(F)(F)F)cc4)c4nc(C5=CCOCC5)nn4c3=O)c21` [Example 15, 2-(6-(1-Acryloylindolin-7-yl)-2-(3,6-dihydro-2H-pyran-4-yl)-5-ethyl-7-oxo-[1,2,4]triazolo[1,5-a]pyrimidin-4(7H)-yl)-N-(4-(trifluoromethyl)phenyl)acetamide], for which the IC50 on WRN [1] and against WRN [2] was below 100 nM each time.

With `C=CC(=O)Nc1ccccc1-c1c(CC)n(CC(=O)Nc2ccc(C(F)(F)F)cc2Cl)c2nc(C3=CCOCC3)nn2c1=O` [Example 16, N-(2-(4-(2-((2-Chloro-4-(trifluoromethyl)phenyl)amino)-2-oxoethyl)-2-(3,6-dihydro-2H-pyran-4-yl)-5-ethyl-7-oxo-4,7-dihydro-[1,2,4]triazolo[1,5-a]pyrimidin-6-yl)phenyl)acrylamide], the IC50 against WRN [1] and against WRN [2] was below 100 nM throughout.

Regarding `C=CC(=O)Nc1ccccc1-c1c(CC)n(CC(=O)Nc2ccc(C(F)(F)F)cc2)c2nc(C3CC3)nn2c1=O` [Example 17, N-(2-(2-Cyclopropyl-5-ethyl-7-oxo-4-(2-oxo-2-((4-(trifluoromethyl)phenyl)amino)ethyl)-4,7-dihydro-[1,2,4]triazolo[1,5-a]pyrimidin-6-yl)phenyl)acrylamide], the IC50 at WRN [1] and on WRN [2] was below 100 nM in each case.

Turning to `C=CC(=O)Nc1ccccc1-c1c(CC)n(CC(=O)Nc2ccc(C(F)(F)F)cc2)c2nc(C)nn2c1=O` [Example 18, N-(2-(5-Ethyl-2-methyl-7-oxo-4-(2-oxo-2-((4-(trifluoromethyl)phenyl)amino)ethyl)-4,7-dihydro-[1,2,4]triazolo[1,5-a]pyrimidin-6-yl)phenyl)acrylamide], the IC50 at WRN [1] and against WRN [2] was 500 to 1000 nM in each case.

Turning to `C=CC(=O)Nc1ccccc1-c1c(CC)n(CC(=O)Nc2ccc(C(F)(F)F)cc2)c2nc(C3CCC3)nn2c1=O` [Example 19, N-(2-(2-Cyclobutyl-5-ethyl-7-oxo-4-(2-oxo-2-((4-(trifluoromethyl)phenyl)amino)ethyl)-4,7-dihydro-[1,2,4]triazolo[1,5-a]pyrimidin-6-yl)phenyl)acrylamide], the IC50 against WRN [1] and at WRN [2] was 100 to 500 nM in each case.

Take `C=CC(=O)Nc1ccccc1-c1c(CC)n(CC(=O)Nc2ccc(C(F)(F)F)cc2)c2nc(C3CCCCC3)nn2c1=O` [Example 20, N-(2-(2-Cyclohexyl-5-ethyl-7-oxo-4-(2-oxo-2-((4-(trifluoromethyl)phenyl)amino)ethyl)-4,7-dihydro-[1,2,4]triazolo[1,5-a]pyrimidin-6-yl)phenyl)acrylamide]: the IC50 against WRN [1] and at WRN [2] was 100 to 500 nM throughout.

For the compound `C=CC(=O)Nc1ccccc1-c1c(CC)n(CC(=O)Nc2ccc(C(F)(F)F)cc2Cl)c2nc(C(C)C)nn2c1=O` [Example 21, N-(2-(4-(2-((2-Chloro-4-(trifluoromethyl)phenyl)amino)-2-oxoethyl)-5-ethyl-2-isopropyl-7-oxo-4,7-dihydro-[1,2,4]triazolo[1,5-a]pyrimidin-6-yl)phenyl)acrylamide], the half-maximal inhibitory concentration (IC50) against WRN [1] and against WRN [2] was 100 to 500 nM in each case.

Turning to `C=CC(=O)Nc1ccccc1-c1c(CC)n(CC(=O)Nc2ccc(C(F)(F)F)cc2)c2nc(-c3cccs3)nn2c1=O` [Example 22, N-(2-(5-Ethyl-7-oxo-4-(2-oxo-2-((4-(trifluoromethyl)phenyl)amino)ethyl)-2-(thiophen-2-yl)-4,7-dihydro-[1,2,4]triazolo[1,5-a]pyrimidin-6-yl)phenyl)acrylamide], the IC50 against WRN [1] and against WRN [2] was below 100 nM in each case.

Take `C=CC(=O)Nc1ccccc1-c1c(CC)n(CC(=O)Nc2ccc(C(F)(F)F)cc2)c2nc(C3CCOCC3)nn2c1=O` [Example 23, N-(2-(5-Ethyl-7-oxo-4-(2-oxo-2-((4-(trifluoromethyl)phenyl)amino)ethyl)-2-(tetrahydro-2H-pyran-4-yl)-4,7-dihydro-[1,2,4]triazolo[1,5-a]pyrimidin-6-yl)phenyl)acrylamide]: the half-maximal inhibitory concentration (IC50) on WRN [1] lay in the range of 100 to 500 nM; on WRN [2], 500 to 1000 nM.

Consider `C=CC(=O)Nc1ccccc1-c1c(CC)n(CC(=O)Nc2ccc(C(F)(F)F)cc2)c2nc(C3CCNCC3)nn2c1=O` [Example 24, N-(2-(5-Ethyl-7-oxo-4-(2-oxo-2-((4-(trifluoromethyl)phenyl)amino)ethyl)-2-(piperidin-4-yl)-4,7-dihydro-[1,2,4]triazolo[1,5-a]pyrimidin-6-yl)phenyl)acrylamide], for which the IC50 on WRN [1] and at WRN [2] was 100 to 500 nM each time.

`C=CC(=O)Nc1ccccc1-c1c(CC)n(CC(=O)Nc2ccc(C(F)(F)F)cc2)c2nc(C3CCN(C(=O)C=C)CC3)nn2c1=O` [Example 25, N-(2-(2-(1-Acryloylpiperidin-4-yl)-5-ethyl-7-oxo-4-(2-oxo-2-((4-(trifluoromethyl)phenyl)amino)ethyl)-4,7-dihydro-[1,2,4]triazolo[1,5-a]pyrimidin-6-yl)phenyl)acrylamide]: the IC50 against WRN [1] and against WRN [2] was below 100 nM throughout.
